Key:
[1] = target: T1, recombinantly produced rat receptor (1α,25-dihydroxyvitamin D receptor) (Rattus norvegicus, UniProt P13053); assay: Competitive VDR binding; conditions: FIGS. 1 and 2
T1 construct: made in house
T1 sequence (P13053 1-423): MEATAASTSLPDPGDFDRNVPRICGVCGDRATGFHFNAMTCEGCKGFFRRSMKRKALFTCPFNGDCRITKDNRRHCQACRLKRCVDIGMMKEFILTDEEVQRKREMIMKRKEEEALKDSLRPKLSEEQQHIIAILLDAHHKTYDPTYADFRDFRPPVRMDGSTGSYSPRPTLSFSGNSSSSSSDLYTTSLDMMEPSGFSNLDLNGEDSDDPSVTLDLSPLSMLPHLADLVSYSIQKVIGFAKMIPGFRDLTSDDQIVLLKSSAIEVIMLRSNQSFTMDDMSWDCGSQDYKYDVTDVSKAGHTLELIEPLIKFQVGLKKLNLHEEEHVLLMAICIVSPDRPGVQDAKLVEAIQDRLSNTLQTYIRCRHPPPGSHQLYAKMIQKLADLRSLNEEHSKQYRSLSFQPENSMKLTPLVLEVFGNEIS
Method: FIGS. 1 and 2—Competitive VDR Binding
Competitive binding of the analogs to the porcine intestinal receptor was carried out by the method described by Dame et al (Biochemistry 25, 4523-4534, 1986), except the recombinantly produced rat receptor was used as the receptor (see Vanhooke et al., Biochemistry, in press, 2004).

[2] = tested on: human leukemia cells (HL-60 cells); assay: HL-60 cell differentiation (NBT reduction); assay type: cell-based; conditions: NBT assay; for potency in promoting the differentiation of leukemia cells: HL-60 cells to monocytes, FIG. 3; for percent of HL-60 cells induced to differentiate: concentration 1×10^−7 M
Method: FIG. 3—EL-60 Cell Differentiation
The differentiation of HL-60 promyelocytic into monocytes was determined as described by Ostrem et al (J. Biol. Chem. 262, 14164-14171, 1987).
Differentiation activity was assessed by a standard differentiation assay, abbreviated as NBT reduction (nitroblue tetrazolium reduction). The assay was conducted according to known procedures, as given, for example, by DeLuca et al U.S. Pat. No. 4,717,721 and Ostrem et al, J. Biol. Chem. 262, 14164, 1987. For the assay, the differentiation activity of the test compounds is expressed in terms of the percent of HL-60 cells having differentiated to normal cells in response to a given concentration of test compound.

[3] = tested on: 24-hydroxylase (24OHase) gene promoter; assay: Transcription activation, 24-hydroxylase promoter luciferase reporter in ROS 17/2.8 (bone) cells; assay type: cell-based; conditions: ROS 17/2.8 cells, luciferase 16 hours after dosing, FIG. 4
Method: FIG. 4—Transcription Activation
Transcriptional activity was measured in ROS 17/2.8 (bone) cells that were stably transfected with a 24-hydroxylase (24OHase) gene promoter upstream of a luciferase reporter gene (Arbour et al., 1998). Cells were given a range of doses. Sixteen hours after dosing the cells were harvested and luciferase activities were measured using a luminometer.
“RLU” in FIG. 4 refers to relative luciferase units.

[4] = tested on: intestinal calcium transport; assay: Intestinal calcium transport, everted gut sac method; assay type: in vivo, Sprague-Dawley rats; conditions: rats, four consecutive ip doses, FIG. 5
Method: (§1) FIGS. 5 and 6—Intestinal Calcium Transport and Bone Calcium Mobilization
(§2) Male, weanling Sprague-Dawley rats were placed on Diet 11 (0.47% Ca) diet+AEK for one week followed by Diet 11 (0.02% Ca)+AEK for 3 weeks. The rats were then switched to a diet containing 0.47% Ca for one week followed by two weeks on a diet containing 0.02% Ca. Dose administration began during the last week on 0.02% calcium diet. Four consecutive ip doses-were given approximately 24 hours apart. Twenty-four hours after the last dose, blood was collected from the severed neck and the concentration of serum calcium determined as a measure of bone calcium mobilization. The first 10 cm of the intestine was also collected for intestinal calcium transport analysis using the everted gut sac method.

[5] = tested on: bone calcium mobilization; assay: Bone calcium mobilization (serum calcium); assay type: in vivo, Sprague-Dawley rats; conditions: rats, four consecutive ip doses, FIG. 6
Method: as §1, §2

activity in binding to the 1α,25-hydroxyvitamin D3 rat receptor [1]	Compound	potency in promoting the differentiation of leukemia cells [2]	percent of HL-60 cells induced to differentiate [2]	transcriptional activity in bone cells [3]	intestinal calcium transport activity [4]	intestinal calcium transport activity compared with 2MD [4]	ability to mobilize calcium from bone [5]	bone calcium mobilization compared with 2MD [5]
very active	(20S)-1α,25-dihydroxy-2-[3′-hydroxypropylidene]-19-norvitamin D3 [1AGS]	as potent as 1α,25-dihydroxyvitamin D3 and 2MD	the same degree of differentiation	significant transcriptional activity	relatively high intestinal calcium transport activity	more active than 2M	significant ability to mobilize calcium from bone	less active in this regard than 2MD
very active	2-[(3′-methoxymethoxy)propylidene]-19-nor-1α,25-dihydroxyvitamin D3 [F-Wit]	as potent as 1α,25-dihydroxyvitamin D3 and 2MD	the same degree of differentiation	significant transcriptional activity	relatively high intestinal calcium transport activity	more active than 2M	significant ability to mobilize calcium from bone	less active in this regard than 2MD
	C=C1/C(=C\C=C2/CCC[C@]3(C)[C@@H]([C@H](C)CCCC(C)(C)O)CC[C@@H]23)C[C@@H](O)C[C@@H]1O [1α,25-dihydroxyvitamin D3, reference compound]		~90%					
very active	(20R)-1α,25-dihydroxy-2-[3′-hydroxypropylidene]-19-norvitamin D3 [1AGR]	as potent as 1α,25-dihydroxyvitamin D3 and 2MD	the same degree of differentiation	significant transcriptional activity	relatively high intestinal calcium transport activity	more active than 2M	significant ability to mobilize calcium from bone	less active in this regard than 2MD
